According to article PMC8053501 (Diabetes, Metabolic Syndrome and Obesity: Targets and …, 2021):
Like-named read-outs stand apart in the source and are kept apart here.

Assays:
[1] = system: diabetes mellitus patients; assay: Acute kidney injury; assay type: in vivo, human; conditions: for Association with AKI, Unadjusted (95% CI) / Association with AKI, Adjusted (95% CI): metformin as reference; for Association with AKI, Adjusted (95% CI): multivariate; for Events During the 90 days (AKI): primary endpoint, first 90 days, patients above 55 years; for Total endpoint (AKI events): primary plus secondary endpoint; for Events at secondary end (AKI): secondary endpoint, after 90 days of hospital admission; for Total Percent (incidence rate of AKI at the end of the study): share of the 4966 total outcomes
[2] = normal mice, oral gavage, 3mg/kg
in vivo = conditions: male, ICR, mouse, po
[3] = Endpoint Diagnosis with 1047 Outcome
[4] = Secondary Diagnosis with 3919 Outcomes

SMILES: OC[C@H]1O[C@@H](c2ccc(Cl)c(Cc3ccc(O[C@H]4CCOC4)cc3)c2)[C@H](O)[C@@H](O)[C@@H]1O [Jardiance]
- Association with AKI, Unadjusted (95% CI) [1, 3]: 0.87 (0.69–1.12)
- Association with AKI, Adjusted (95% CI) [1, 3]: 0.76 (0.58–1.18)
- Association with AKI, Unadjusted (95% CI) [1, 4]: 0.83 (0.68–1.14)
- Association with AKI, Adjusted (95% CI) [1, 4]: 0.85 (0.67–1.18)
- Events During the 90 days (AKI) [1]: 57
- Total endpoint (AKI events) [1]: 277
- Events at secondary end (AKI) [1]: 220
- Total Percent (incidence rate of AKI at the end of the study) [1]: 5.58%
- Drug concentration, time course ([2]; Kidney, 0h): 0
- Drug concentration, time course ([2]; Kidney, 3h): 1800
- Drug concentration, time course ([2]; Kidney, 6h): 1200
- Drug concentration, time course ([2]; Kidney, 9h): 550
- Drug concentration, time course ([2]; Kidney, 12h): 100
- Drug concentration, time course ([2]; Kidney, 15h): 0
- Drug concentration, time course ([2]; Kidney, 18h): 0
- Drug concentration, time course ([2]; Kidney, 21h): 0
- Drug concentration, time course ([2]; Kidney, 24h): 0
- Drug concentration, time course ([2]; Liver, 0h): 0
- Drug concentration, time course ([2]; Liver, 3h): 1100
- Drug concentration, time course ([2]; Liver, 6h): 850
- Drug concentration, time course ([2]; Liver, 9h): 400
- Drug concentration, time course ([2]; Liver, 12h): 50
- Drug concentration, time course ([2]; Liver, 15h): 0
- Drug concentration, time course ([2]; Liver, 18h): 0
- Drug concentration, time course ([2]; Liver, 21h): 0
- Drug concentration, time course ([2]; Liver, 24h): 0
- Drug concentration, time course ([2]; Plasma, 0h): 0
- Drug concentration, time course ([2]; Plasma, 3h): 500
- Drug concentration, time course ([2]; Plasma, 6h): 450
- Drug concentration, time course ([2]; Plasma, 9h): 200
- Drug concentration, time course ([2]; Plasma, 12h): 0
- Drug concentration, time course ([2]; Plasma, 15h): 0
- Drug concentration, time course ([2]; Plasma, 18h): 0
- Drug concentration, time course ([2]; Plasma, 21h): 0
- Drug concentration, time course ([2]; Plasma, 24h): 0
- Tmax (in vivo): 1 h
- Tmax (in vivo; 3 mg/kg): 1 h
- Cmax (in vivo; 3 mg/kg, oral gavage, Kidney): 1740 ng/mL
- Cmax (in vivo; 3 mg/kg, oral gavage, Liver): 1150 ng/mL
- Cmax (in vivo; 3 mg/kg, oral gavage, Plasma): 412 ng/mL
- half-life (in vivo; 3 mg/kg, t1/2, mouse, oral gavage, Kidney): 2.1 h
- half-life (in vivo; 3 mg/kg, t1/2, mouse, oral gavage, Liver): 2.2 h
- half-life (in vivo; 3 mg/kg, t1/2, mouse, oral gavage, Plasma): 1.8 h

SMILES: N#C[C@@H]1CCCN1C(=O)CNC12CC3CC(CC(O)(C3)C1)C2 [Vildagliptin, vildagliptin]
- Association with AKI, Unadjusted (95% CI) [1, 3]: 1.23 (0.97–1.32)
- Association with AKI, Adjusted (95% CI) [1, 3]: 1.18 (0.92–1.35)
- Association with AKI, Unadjusted (95% CI) [1, 4]: 1.20 (0.72–1.38)
- Association with AKI, Adjusted (95% CI) [1, 4]: 1.07 (0.95–1.45)
- Events During the 90 days (AKI) [1]: 79
- Total endpoint (AKI events) [1]: 316
- Events at secondary end (AKI) [1]: 237
- Total Percent (incidence rate of AKI at the end of the study) [1]: 6.36%
- Drug concentration, time course ([2]; Kidney, 0h): 0
- Drug concentration, time course ([2]; Kidney, 3h): 4500
- Drug concentration, time course ([2]; Kidney, 6h): 3950
- Drug concentration, time course ([2]; Kidney, 9h): 1650
- Drug concentration, time course ([2]; Kidney, 12h): 100
- Drug concentration, time course ([2]; Kidney, 15h): 25
- Drug concentration, time course ([2]; Kidney, 18h): 0
- Drug concentration, time course ([2]; Kidney, 21h): 0
- Drug concentration, time course ([2]; Kidney, 24h): 0
- Drug concentration, time course ([2]; Liver, 0h): 0
- Drug concentration, time course ([2]; Liver, 3h): 8300
- Drug concentration, time course ([2]; Liver, 6h): 4800
- Drug concentration, time course ([2]; Liver, 9h): 2900
- Drug concentration, time course ([2]; Liver, 12h): 300
- Drug concentration, time course ([2]; Liver, 15h): 50
- Drug concentration, time course ([2]; Liver, 18h): 0
- Drug concentration, time course ([2]; Liver, 21h): 0
- Drug concentration, time course ([2]; Liver, 24h): 0
- Drug concentration, time course ([2]; Plasma, 0h): 0
- Drug concentration, time course ([2]; Plasma, 3h): 7500
- Drug concentration, time course ([2]; Plasma, 6h): 3000
- Drug concentration, time course ([2]; Plasma, 9h): 1200
- Drug concentration, time course ([2]; Plasma, 12h): 600
- Drug concentration, time course ([2]; Plasma, 15h): 200
- Drug concentration, time course ([2]; Plasma, 18h): 0
- Drug concentration, time course ([2]; Plasma, 21h): 0
- Drug concentration, time course ([2]; Plasma, 24h): 0
- Tmax (in vivo): 0.5 h
- Tmax (in vivo; 3 mg/kg): 0.5 h
- Cmax (in vivo; 3 mg/kg, oral gavage, Kidney): 5870 ng/mL
- Cmax (in vivo; 3 mg/kg, oral gavage, Liver): 5030 ng/mL
- Cmax (in vivo; 3 mg/kg, oral gavage, Plasma): 765 ng/mL

SMILES: Cn1c(=O)cc(N2CCC[C@@H](N)C2)n(Cc2ccccc2C#N)c1=O [Alogliptin, alogliptin]
- Association with AKI, Unadjusted (95% CI) [1, 3]: 1.83 (1.75–2.16)
- Association with AKI, Adjusted (95% CI) [1, 3]: 1.43 (1.31–2.04)
- Association with AKI, Unadjusted (95% CI) [1, 4]: 2.27 (1.08–3.12)
- Association with AKI, Adjusted (95% CI) [1, 4]: 2.85 (2.26–3.07)
- Association with AKI compared to control drug metformin, in words ([1]; multivariate analysis): increased rate of AKI
- Events During the 90 days (AKI) [1]: 91
- Total endpoint (AKI events) [1]: 364
- Events at secondary end (AKI) [1]: 273
- Total Percent (incidence rate of AKI at the end of the study) [1]: 7.33%
- Drug concentration, time course ([2]; Kidney, 0h): 0
- Drug concentration, time course ([2]; Kidney, 3h): 6700
- Drug concentration, time course ([2]; Kidney, 6h): 4300
- Drug concentration, time course ([2]; Kidney, 9h): 2350
- Drug concentration, time course ([2]; Kidney, 12h): 100
- Drug concentration, time course ([2]; Kidney, 15h): 50
- Drug concentration, time course ([2]; Kidney, 18h): 0
- Drug concentration, time course ([2]; Kidney, 21h): 0
- Drug concentration, time course ([2]; Kidney, 24h): 0
- Drug concentration, time course ([2]; Liver, 0h): 0
- Drug concentration, time course ([2]; Liver, 3h): 6340
- Drug concentration, time course ([2]; Liver, 6h): 3500
- Drug concentration, time course ([2]; Liver, 9h): 1980
- Drug concentration, time course ([2]; Liver, 12h): 300
- Drug concentration, time course ([2]; Liver, 15h): 100
- Drug concentration, time course ([2]; Liver, 18h): 0
- Drug concentration, time course ([2]; Liver, 21h): 0
- Drug concentration, time course ([2]; Liver, 24h): 0
- Drug concentration, time course ([2]; Plasma, 0h): 0
- Drug concentration, time course ([2]; Plasma, 3h): 400
- Drug concentration, time course ([2]; Plasma, 6h): 250
- Drug concentration, time course ([2]; Plasma, 9h): 50
- Drug concentration, time course ([2]; Plasma, 12h): 0
- Drug concentration, time course ([2]; Plasma, 15h): 0
- Drug concentration, time course ([2]; Plasma, 18h): 0
- Drug concentration, time course ([2]; Plasma, 21h): 0
- Drug concentration, time course ([2]; Plasma, 24h): 0
- Tmax (in vivo): 1 h
- Tmax (in vivo; 3 mg/kg): 1 h
- Cmax (in vivo; 3 mg/kg, oral gavage, Kidney): 8560 ng/mL
- Cmax (in vivo; 3 mg/kg, oral gavage, Liver): 6730 ng/mL
- Cmax (in vivo; 3 mg/kg, oral gavage, Plasma): 943 ng/mL
- half-life (in vivo; 3 mg/kg, t1/2): 2.4 h
